Like-named read-outs stand apart in the source and are kept apart here.
How the values were obtained:
[1] = Plasma stability test of payloads (LC-MS/MS, half-life); assay type: in vitro ADME; conditions: human plasma, 37° C., time points 0-24 h, read-out: Human plasma stability T1/2 (converted)
Protocol: Stock solutions were prepared at 10 mM in DMSO for the test compound. Aliquots of the stock solutions were diluted to 0.02 mM in 0.05 M sodium phosphate buffer containing 0.5% BSA as the dosing solution. Then 10 μL of the dosing solutions were dosed into 90 μL of pre-warmed plasma (37° C.) in singlet (n=1) in 96-well assay plates to reach a final test concentration of 2 μM. The plates were kept in a 37° C. water bath for the duration of the experiment. At each time point (0, 0.25, 1, 8, 24 h), 400 μL of acetonitrile (containing internal standard) was added into corresponding wells of the assay plates. After the final time point was quenched, the assay plates were shaken on a vibrator (IKA, MTS 2/4) for 10 min (600 rpm/min) and then centrifuged at 5594 g for 15 min (Thermo Multifuge×3R). Aliquots of the supernatant were taken and analyzed by LC-MS/MS. The peak area response ratio to internal standard (PARR) of the compounds at 0.25, 1, 8, and 24 h was compared to the PARR at time zero to determine the percent of test compound remaining at each time point. Half-lives (ti/2) were calculated using Excel software, fitting to a single-phase exponential decay equation.

SK-BR-3 cells = experiment: SK-BR-3 anti-proliferation assay for payloads (CellTiter-Glo); assay type: cell-based; conditions: Homo sapiens, free payload, 120-144 h, read-out: SKBR3
Protocol: The cell line used in the anti-proliferation assays was SK-BR-3, a human breast, adenocarcinoma (pleural effusion) cell line. The cells were grown in McCoy's 5a Medium+10% FBS. To run the assay for payloads, the cells (40 μL, 700 cells) were added to each well in a 384-well plate and incubated for 24 hours at 37° C. with 5% CO2. Then the cells were treated with test compounds at various concentrations using HPD300, and then normalize the DMSO to 0.5%. The control wells contain cells and the medium but lack the test compounds. The plates were incubated for 120 h at 37° C. with 5% CO2. To run the assay for ADCs and some key payloads, the cells (80 μL, 1000 cells) were added to each well in a 96-well plate and incubated for twenty-four hours at 37° C. with 5% CO2. Next, the ADCs or payloads were diluted with Opti-Mem with 0.1% BSA. The cells were treated with test compounds or ADCs (20 μL) at various concentrations in appropriate cell culture medium (total volume, 0.1 mL). The final concentration of DMSO was adjusted to 0.2% and the Opti-Mem with 0.1% BSA was adjusted to 5%. The control wells contained cells and the medium but lacked the test compounds. The plates were incubated for 144 h at 37° C. with 5% CO2. CTG reagent was then added to the wells (25 μL/384-well or 100 μL/96-well). After the plates were shaken for 10 min and then incubated for 10 min at room temperature, paste the clear bottom with white back seal and record luminescence with Envision. The inhibition % was calculated according to the following equation: inhibition %=[1-(assay-blank)/(control-blank)]×100.

HCT15 cells = experiment: HCT15 anti-proliferation / cell killing assay (CellTiter-Glo), with or without verapamil; assay type: cell-based, human; conditions: for IC50: Homo sapiens
Protocol: The cell line used in the anti-proliferation assays was HCT15, a human colon, colorectal carcinoma cell line. The HCT15 cells were grown in RPMI medium 1640+10% FBS. To run the assay, the cells (40 μL, 400 cells) were added to each well in a 384-well plate and incubated for twenty-four hours at 37° C. with 5% CO2. One hour before adding compounds, freshly dilute Verapamil to 0.2 mg/ml in ddH2O. Add 1 μL/well diluted Verapamil to Verapamil treatment wells and 1 μL/well ddH2O to the non-Verapamil treatment wells. Return plates to the incubator at 37° C. with 5% CO2. Then the cells were treated with test compounds at various concentrations using HPD300, and then normalize the DMSO to 0.5%. The control wells contained cells and the medium but lack the test compounds. The plates were incubated for 120 hours at 37° C. with 5% CO2. CTG reagent was then added to the wells (25 μL). After the plates were shaken for 10 min and then incubated for 10 min at room temperature, paste the clear bottom with white back seal and record luminescence with Envision. The inhibition % was calculated according to the following equation: inhibition %=[1−(assay-blank)/(control-blank)]×100.

[2] = HCT15 cells, no verapamil, 120 h (5 days), read-out: HCT-15
[3] = HCT-15, HCT15 cells pre-treated with verapamil, 120 h, read-out: HCT-15 with verapamil

Row | SMILES | half-life at 2 μM [1] [days] | IC50 (SK-BR-3 cells) [nM] | HCT-15 with verapamil (nM) (HCT15 cells; HCT15 cells pre-treated with verapamil, 120 h) | IC50 (HCT15 cells; [2]) [nM] | IC50 (HCT15 cells; [3]) [nM]
1 | CCCCCCN(C(=O)[C@@H](NC(=O)[C@H]1CCCCN1C)[C@@H](C)CC)[C@H](C[C@@H](OCCCO)c1nc(C(=O)N[C@@H](Cc2ccc(N)c(F)c2)CC(C)(C)C(=O)O)cs1)C(C)C (mixture of isomers) [PA22, Rac-(R)-5-(4-amino-3-fluorophenyl)-4-(2-((1S,3S)-3-((2R,3R)—N-hexyl-3-methyl-2-((S)-1-methylpiperidine-2-carboxamido)pentanamido)-1-(3-hydroxypropoxy)-4-methylpentyl)thiazole-4-carboxamido)-2,2-dimethylpentanoic acid] | 2.65 | 0.044 | Not reach | 0.532 | –
2 | CCCCCCN(C(=O)[C@@H](NC(=O)[C@H]1CCCCN1C)[C@@H](C)CC)[C@H](C[C@@H](OC(=O)NCCO)c1nc(C(=O)N[C@@H](Cc2ccc(N)c(F)c2)CC(C)(C)C(=O)O)cs1)C(C)C (mixture of isomers) [PA24, (S)-5-(4-amino-3-fluorophenyl)-4-(2-((3RS,6SR,8SR)-3-((RS)-sec-butyl)-5-hexyl-13-hydroxy-6-isopropyl-1-((R)-1-methylpiperidin-2-yl)-1,4,10-trioxo-9-oxa-2,5,11-triazatridecan-8-yl)thiazole-4-carboxamido)-2,2-dimethylpentanoic acid] | 1.81 | 0.135 | – | 0.944 | 0.255
3 | CCCCCCN(C(=O)[C@@H](NC(=O)[C@H]1CCCCN1C)[C@@H](C)CC)[C@H](C[C@@H](OC(C)=O)c1nc(C(=O)N[C@@H](Cc2ccc(NCCO)cc2)CC(C)(C)C(=O)O)cs1)C(C)C (racemic) [PA14, Rac-(R)-4-(2-((1S,3S)-1-acetoxy-3-((2R,3R)—N-hexyl-3-methyl-2-((S)-1-methylpiperidine-2-carboxamido)pentanamido)-4-methylpentyl)thiazole-4-carboxamido)-acid] | 2.96 | 0.158 | – | 0.618 | 0.147
4 | CCCCCCN(C(=O)[C@@H](NC(=O)[C@H]1CCCCN1C)[C@@H](C)CC)[C@H](C[C@@H](OCC)c1nc(C(=O)N[C@@H](Cc2ccc(NCCO)cc2)CC(C)(C)C(=O)O)cs1)C(C)C (racemic) [PA15, Rac-(R)-4-(2-((1S,3S)-1-ethoxy-3-((2R,3R)—N-hexyl-3-methyl-2-((S)-1-methylpiperidine-2-carboxamido)pentanamido)-4-methylpentyl)thiazole-4-carboxamido)-acid] | 4.29 | 0.314 | – | 1.7 | 0.393
5 | CCCCCCN(C(=O)[C@@H](NC(=O)[C@H]1CCCCN1C)[C@@H](C)CC)[C@H](C[C@@H](OC(=O)NCC(O)CO)c1nc(C(=O)N[C@@H](Cc2ccc(N)cc2)CC(C)(C)C(=O)O)cs1)C(C)C (stereo partly drawn) [PA26, (4S)-5-(4-aminophenyl)-4-(2-((3S,6R,8R)-3-((S)-sec-butyl)-5-hexyl-13,14-dihydroxy-6-isopropyl-1-((R)-1-methylpiperidin-2-yl)-1,4,10-trioxo-9-oxa-2,5,11-triazatetradecan-8-yl)thiazole-4-carboxamido)-2,2-dimethylpentanoic acid] | – | 2.82 | – | 14.6 | 2.23
6 | CCCCCCN(C(=O)[C@@H](NC(=O)[C@H]1CCCCN1C)[C@@H](C)CC)[C@H](C[C@@H](OC(=O)NCC(O)CO)c1nc(C(=O)N[C@@H](Cc2ccc(NCCO)cc2)CC(C)(C)C(=O)O)cs1)C(C)C (stereo partly drawn) [PA27] | – | 63.9 | – | > 100 | 33.6
7 | CCCCCCN(C(=O)[C@@H](NC(=O)[C@H]1CCCCO1)[C@@H](C)CC)[C@H](C[C@@H](OCC)c1nc(C(=O)N[C@@H](Cc2ccc(N)cc2)CC(C)(C)C(=O)O)cs1)C(C)C [PA28] | – | > 100 | – | 154 | –

— US20230414775A1, “TUBULYSINS AND PROTEIN-TUBULYSIN CONJUGATES” (priority 2021, published 2023)
